Like-named read-outs stand apart in the source and are kept apart here.

As a reminder, the Emax is the greatest response seen or fitted, relative to the assay's reference.

This assay has as its target T1, human mGlu2 receptor (Homo sapiens, UniProt Q14416).
T1 construct: expressed in transfected cells; host or cells: CHO cells
Nature of the assay: [35S]GTPγS binding assay, mGluR2 PAM. Format: biochemical. Particulars: for EC50: EC50 expressed in M; for Emax: read-out: GTPγS - hmGluR2 PAM Emax, maximal % effect relative to the control glutamate response. The protocol: [^35S]GTPγS Binding Assay
The [^35S]GTPγS binding assay is a functional membrane-based assay used to study G-protein coupled receptor (GPCR) function whereby incorporation of a non-hydrolysable form of GTP, [^35S]GTPγS (guanosine 5′-triphosphate, labelled with […] ^35S), is measured.
Cells were then collected by scraping in PBS and cell suspension was centrifuged (10 min at 4000 RPM in benchtop centrifuge). Supernatant was discarded and pellet gently resuspended in 50 mM Tris-HCl, pH 7.4 by mixing with a vortex and pipetting up and down. The suspension was centrifuged at 16,000 RPM (Sorvall RC-5C plus rotor SS-34) for 10 minutes and the supernatant discarded. The pellet was homogenized in 5 mM Tris-HCl, pH 7.4 using an ultra-turrax homogenizer and centrifuged again (18,000 RPM, 20 min, 4° C.). The final pellet was resuspended in 50 mM Tris-HCl, pH 7.4 and stored at −80° C. in appropriate aliquots before use. Protein concentration was determined by the Bradford method (Bio-Rad, USA) with bovine serum albumin as standard.
Measurement of mGluR2 positive allosteric modulatory activity of test compounds was performed as follows. Test compounds and glutamate were diluted in assay buffer containing 10 mM HEPES acid, 10 mM HEPES salt, pH 7.4, 100 mM NaCl, 3 mM MgCl2 and 10 μM GDP. Human mGlu2 receptor-containing membranes were thawed on ice and diluted in assay buffer supplemented with 14 μg/ml saponin. Membranes were pre-incubated with compound alone or together with a predefined (˜EC20) concentration of glutamate (PAM assay) for 30 min at 30° C. After addition of [^35S]GTPγS (f c. 0.1 nM), assay mixtures were shaken briefly and further incubated to allow [^35S]GTPγS incorporation on activation (30 minutes, 30° C.). Final assay mixtures contained 7 μg of membrane protein in 10 mM HEPES acid, 10 mM HEPES salt, pH 7.4, 100 mM NaCl, 3 mM MgCl2, 10 μM GDP and 2 μg/ml saponin. […] Filters were washed 6 times with ice-cold 10 mM NaH2PO4/10 mM Na2HPO4, pH 7.4. Filters were then air-dried, and 40 μl of liquid scintillation cocktail (Microscint-O) was added to each well. Membrane-bound radioactivity was counted in a Microplate Scintillation and Luminescence Counter from Perkin Elmer.
The concentration-response curves of representative compounds of the present invention—obtained in the presence of EC20 of mGluR2 agonist glutamate to determine positive allosteric modulation (PAM)—were generated using the Lexis software interface (developed at J&J). Data were calculated as % of the control glutamate response, defined as the maximal response that is generated upon addition of glutamate alone. Sigmoid concentration-response curves plotting these percentages versus the log concentration of the test compound were analyzed using non-linear regression analysis. The concentration producing half-maximal effect is then calculated as EC50.
The pEC50 values below were calculated as the −log EC50, when the EC50 is expressed in M. Emax is defined as relative maximal effect (i.e. maximal % effect relative to the control glutamate response).
All compounds were tested in presence of mGluR2 agonist glutamate at a predetermined EC20 concentration, to determine positive allosteric modulation. pEC50 values were calculated from a concentration-response experiment of at least 8 concentrations.

[1] abbreviates: in presence of glutamate at EC20, read-out: GTPγS - hmGluR2 PAM pEC50 (converted).
The mark [2] stands for this setting: GTPγS - hmGluR2 PAM pEC50, in presence of glutamate at EC20.

T1 sequence (Q14416 19-872): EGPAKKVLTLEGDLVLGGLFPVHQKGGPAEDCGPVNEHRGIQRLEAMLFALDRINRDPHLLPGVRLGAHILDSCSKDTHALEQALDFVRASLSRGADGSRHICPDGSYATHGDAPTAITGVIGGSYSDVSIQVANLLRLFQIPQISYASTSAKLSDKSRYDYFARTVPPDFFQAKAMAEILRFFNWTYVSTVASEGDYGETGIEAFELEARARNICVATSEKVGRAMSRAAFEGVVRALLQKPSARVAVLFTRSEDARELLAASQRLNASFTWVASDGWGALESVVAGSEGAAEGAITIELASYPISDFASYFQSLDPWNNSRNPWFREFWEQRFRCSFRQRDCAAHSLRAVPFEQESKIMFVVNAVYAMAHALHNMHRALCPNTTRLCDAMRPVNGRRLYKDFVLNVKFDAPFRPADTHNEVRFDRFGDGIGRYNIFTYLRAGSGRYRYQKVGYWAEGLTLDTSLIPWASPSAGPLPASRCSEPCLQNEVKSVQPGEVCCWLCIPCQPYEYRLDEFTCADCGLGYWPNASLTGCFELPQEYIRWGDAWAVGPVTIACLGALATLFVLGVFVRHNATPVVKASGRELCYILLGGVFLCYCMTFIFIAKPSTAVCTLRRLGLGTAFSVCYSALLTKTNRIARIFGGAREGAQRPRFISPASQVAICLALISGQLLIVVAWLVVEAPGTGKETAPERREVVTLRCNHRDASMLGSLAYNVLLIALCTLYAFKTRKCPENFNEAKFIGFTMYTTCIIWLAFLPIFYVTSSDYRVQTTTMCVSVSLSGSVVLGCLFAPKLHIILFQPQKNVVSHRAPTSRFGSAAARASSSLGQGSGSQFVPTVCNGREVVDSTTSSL

Consider `CC(Oc1ccc(F)cc1)c1ccn2c(CC3CC3)nnc2c1C(F)(F)F` (single isomer, unassigned) [Compound 3, 3-(Cyclopropylmethyl)-7-[(1*S)-1-(4-fluorophenoxy)ethyl]-8-(trifluoromethyl)[1,2,4]triazolo[4,3-a]pyridine], for which, under setting [1], the EC50 was 1620 nM.

Turning to `C[C@H](Oc1ccc(F)c(F)c1)c1ccn2c(CC3CC3)nnc2c1C(F)(F)F` [Compound 8, 3-(Cyclopropylmethyl)-7-[(1S)-1-(3,4-difluorophenoxy)ethyl]-8-(trifluoromethyl)[1,2,4]triazolo[4,3-a]pyridine], the EC50 under setting [1] is 91.2 nM.

Regarding `CC(Oc1ccc(F)cc1)c1ccn2c(CC3CC3)nnc2c1C(F)(F)F` (centres unmarked) [Compound 1, 3-(Cyclopropylmethyl)-7-[1-(4-fluorophenoxy)ethyl]-8-(trifluoromethyl)[1,2,4]triazolo[4,3-a]pyridine], the EC50 under setting [1] was 257 nM.

For the molecule `CCOCc1nnc2c(C(F)(F)F)c(C(C)Oc3c(F)cc(F)cc3F)ccn12` (single isomer, unassigned) [Compound 23, 3-(Ethoxymethyl)-8-(trifluoromethyl)-7-[(1*S)-1-(2,4,6-trifluorophenoxy)ethyl][1,2,4]triazolo[4,3-a]pyridine], under setting [2], the EC50 was 1150 nM.

`CCCc1nnc2c(C(F)(F)F)c(C(C)Oc3ccc(F)cc3F)ccn12` (single isomer, unassigned) [Compound 31]: under setting [1], the EC50 was 89.1 nM.

With `CC(Oc1ccc(F)cc1F)c1ccn2c(CC3CC3)nnc2c1C(F)(F)F` (centres unmarked) [Compound 4, 3-(Cyclopropylmethyl)-7-[1-(2,4-difluorophenoxy)ethyl]-8-(trifluoromethyl)[1,2,4]triazolo[4,3-a]pyridine], under setting [1], the EC50 is 91.2 nM.

In the case of `CC(Oc1ccc(F)cc1)c1ccn2c(CC3CC3)nnc2c1C(F)(F)F` (single isomer, unassigned) [Compound 2, 3-(Cyclopropylmethyl)-7-[(1*R)-1-(4-fluorophenoxy)ethyl]-8-(trifluoromethyl)[1,2,4]triazolo[4,3-a]pyridine], the EC50 under setting [1] is 145 nM.

Consider `CCOCc1nnc2c(C(F)(F)F)c(C(C)Oc3ccc(F)cc3F)ccn12` (single isomer, unassigned) [Compound 21, 7-[(1*S)-1-(2,4-Difluorophenoxy)ethyl]-3-(ethoxymethyl)-8-(trifluoromethyl)[1,2,4]triazolo[4,3-a]pyridine], for which the EC50 under setting [1] is 479 nM.

Turning to `CCOCc1nnc2c(C(F)(F)F)c(C(C)Oc3ccc(F)cc3F)ccn12` (single isomer, unassigned) [Compound 20, 7-[(1*R)-1-(2,4-Difluorophenoxy)ethyl]-3-(ethoxymethyl)-8-(trifluoromethyl)[1,2,4]triazolo[4,3-a]pyridine], the EC50 under setting [1] is 85.1 nM.

`C[C@H](Oc1c(F)cccc1F)c1ccn2c(CC3CC3)nnc2c1C(F)(F)F` [Compound 11, 3-(Cyclopropylmethyl)-7-[(1S)-1-(2,6-difluorophenoxy)ethyl]-8-(trifluoromethyl)[1,2,4]triazolo[4,3-a]pyridine]: the EC50 under setting [1] is 5.62 nM.

Consider `CCCc1nnc2c(C(F)(F)F)c(C(C)Oc3ccc(F)cc3F)ccn12` (centres unmarked) [Compound 30, 7-[1-(2,4-Difluorophenoxy)ethyl]-3-propyl-8-(trifluoromethyl)[1,2,4]triazolo[4,3-a]pyridine], for which, under setting [1], the EC50 is 126 nM.

Take `C[C@H](Oc1cccc(F)c1F)c1ccn2c(CC3CC3)nnc2c1C(F)(F)F` [Compound 9, 3-(Cyclopropylmethyl)-7-[(1S)-1-(2,3-difluorophenoxy)ethyl]-8-(trifluoromethyl)[1,2,4]triazolo[4,3-a]pyridine]: under setting [1], the EC50 is 50.1 nM.

Consider `CCOCc1nnc2c(C(F)(F)F)c(C(C)Oc3ccc(F)cc3F)ccn12` (centres unmarked) [Compound 19, 7-[1-(2,4-Difluorophenoxy)ethyl]-3-(ethoxymethyl)-8-(trifluoromethyl)[1,2,4]triazolo[4,3-a]pyridine], for which the EC50 under setting [1] was 195 nM. The Emax (glutamate at EC20) is 297%.

For `C[C@@H](Oc1ccc(F)cc1F)c1ccn2c(CC3CC3)nnc2c1C(F)(F)F` [Compound 5, 3-(Cyclopropylmethyl)-7-[(1R)-1-(2,4-difluorophenoxy)ethyl]-8-(trifluoromethyl)[1,2,4]triazolo[4,3-a]pyridine], the EC50 under setting [1] is 871 nM.

For `COc1cc(F)ccc1O[C@@H](C)c1ccn2c(CC3CC3)nnc2c1C(F)(F)F` [Compound 12, 3-(Cyclopropylmethyl)-7-[(1S)-1-(4-fluoro-2-methoxyphenoxy)ethyl]-8-(trifluoromethyl)[1,2,4]triazolo[4,3-a]pyridine], under setting [1], the EC50 was 102 nM.

With `CCCc1nnc2c(C(F)(F)F)c(C(C)Oc3ccc(F)cc3F)ccn12` (single isomer, unassigned) [Compound 32], under setting [1], the EC50 is 1950 nM.

`Cc1ccc(O[C@@H](C)c2ccn3c(CC4CC4)nnc3c2C(F)(F)F)c(Cl)c1` [Compound 13, 7-[(1S)-1-(2-Chloro-4-methylphenoxy)ethyl]-3-(cyclopropylmethyl)-8-(trifluoromethyl)[1,2,4]triazolo[4,3-a]pyridine]: the EC50 under setting [1] is 17.8 nM.

On to `CC(Oc1ccc(F)cc1F)c1ccn2c(CC3CCC3)nnc2c1C(F)(F)F` (centres unmarked) [Compound 16, 3-(Cyclobutylmethyl)-7-[1-(2,4-difluorophenoxy)ethyl]-8-(trifluoromethyl)[1,2,4]triazolo[4,3-a]pyridine], for which the EC50 under setting [2] was 28.8 nM. The Emax (glutamate at EC20) worked out at 284%.

As to `C[C@H](Oc1cc(F)cc(F)c1)c1ccn2c(CC3CC3)nnc2c1C(F)(F)F` [Compound 7, 3-(Cyclopropylmethyl)-7-[(1S)-1-(3,5-difluorophenoxy)ethyl]-8-(trifluoromethyl)[1,2,4]triazolo[4,3-a]pyridine], the EC50 under setting [1] was 49 nM.

Consider `CC(Oc1ccc(F)cc1F)c1ccn2c(CC3CCC3)nnc2c1C(F)(F)F` (single isomer, unassigned) [Compound 18, 3-(Cyclobutylmethyl)-7-[(1*S)-1-(2,4-difluorophenoxy)ethyl]-8-(trifluoromethyl)[1,2,4]triazolo[4,3-a]pyridine], for which the EC50 under setting [2] is 575 nM. In addition, the “GTPγS - hmGluR2 PAM Emax” value (maximal % effect relative to the control glutamate response, glutamate at EC20) came to 213%.

Consider `CCOCc1nnc2c(C(F)(F)F)c(C(C)Oc3c(F)cc(F)cc3F)ccn12` (single isomer, unassigned) [Compound 22, 3-(Ethoxymethyl)-8-(trifluoromethyl)-7-[(1*R)-1-(2,4,6-trifluorophenoxy)ethyl][1,2,4]triazolo[4,3-a]pyridine], for which the EC50 under setting [2] was 24.5 nM.

As to `C[C@H](Oc1c(F)cc(F)cc1F)c1ccn2c(CC3CC3)nnc2c1C(F)(F)F` [Compound 15, 3-(Cyclopropylmethyl)-8-(trifluoromethyl)-7-[(1S)-1-(2,4,6-trifluorophenoxy)ethyl][1,2,4]triazolo[4,3-a]pyridine], the EC50 under setting [1] is 6.92 nM.

Consider `CC(Oc1ccc(F)cc1F)c1ccn2c(CC3CCC3)nnc2c1C(F)(F)F` (single isomer, unassigned) [Compound 17, 3-(Cyclobutylmethyl)-7-[(1*R)-1-(2,4-difluorophenoxy)ethyl]-8-(trifluoromethyl)[1,2,4]triazolo[4,3-a]pyridine], for which the EC50 under setting [2] is 18.6 nM. The Emax (glutamate at EC20) is 317%.

On to `C[C@H](Oc1cc(F)ccc1F)c1ccn2c(CC3CC3)nnc2c1C(F)(F)F` [Compound 10, 3-(Cyclopropylmethyl)-7-[(1S)-1-(2,5-difluorophenoxy)ethyl]-8-(trifluoromethyl)[1,2,4]triazolo[4,3-a]pyridine], for which the EC50 under setting [1] is 33.9 nM.

For `Cc1cc(F)ccc1O[C@@H](C)c1ccn2c(CC3CC3)nnc2c1C(F)(F)F` [Compound 14, 3-(Cyclopropylmethyl)-7-[(1 S)-1-(4-fluoro-2-methylphenoxy)ethyl]-8-(trifluoromethyl)[1,2,4]triazolo[4,3-a]pyridine], the EC50 under setting [1] was 29.5 nM.

The values are drawn from patent publication US9708315B2, “1,2,4-triazolo[4,3-a]pyridine compounds and their use as positive allosteric modulators of MGLUR2 receptors” (Janssen Pharmaceutica NV, priority 2013, dated 2017).
